Experimental data taken from US9889183B2, “PKC activators and anticoagulant in regimen for treating stroke” (BLANCHETTE ROCKEFELLER NEUROSCIENCES INSTITUTE, priority 2010, dated 2018).

Assays:
[1] = tested on: PKC in primary neurons; assay: PKC activity over time in rat hippocampal primary neurons; assay type: cell-based; conditions: only observed in primary neurons
Description: (§1) Cell culture. Rat hippocampal H19-7/IGF-IR cells (ATCC, Manassas, Va.) were plated onto poly-L-lysine coated plates and grown at 35° C. in DMEM/10% FCS for several days until about 50% coverage was obtained. The cells were then induced to differentiate into a neuronal phenotype by replacing the medium with 5 ml N2 medium containing 10 ng/ml basic fibroblast growth factor at 39° C. and grown in T-75 flasks at 37° C. Human SH-SY5Y neuroblastoma cells (ATCC) were cultured in 45% F12K/45% MEM/10% FCS. Mouse N2A neuroblastoma cells were cultured in DMEM/10% FCS without glutamine. Rat hippocampal neurons from 18-day-old embryonic Sprague Dawley rat brains were plated on 12- or 96-well plates coated with poly-D-lysine (Sigma-Aldrich, St. Louis, Mo.) in B-27 neurobasal medium containing 0.5 mM glutamine and 25 μM glutamate (Invitrogen, Carlsbad, Calif.) and cultured for three days in the medium without glutamate. The neuronal cells were grown under 5% CO2 in an incubator maintained at 37° C. for 14 days.
Protein kinase C assay. […] 0.5 Ci[^γ32P]ATP was added and ^32P-phosphoprotein formation was measured by adsorption onto phosphocellulose as described previously. […] PKC activity was measured in the absence of diacylglycerol and phosphatidylserine and PKC δ, ε, η, and μ were measured in the absence of added EGTA and CaCl2, as described by Kanno et al. (J. Lipid Res. 2006, vol. 47, pp. 1146-1150). […]

[2] = target: T1, PKCγ (Homo sapiens, UniProt P05129); assay: PKC isozyme specificity, PKCγ; assay type: biochemical; conditions: 50-100 μM; data not shown
T1 construct: purchased Calbiochem
Description: (§2) Protein kinase C assay. Rat hippocampal cells were cultured and scraped in 0.2 ml homogenization buffer (20 mM Tris-HCl, pH 7.4, 50 mM NaF, 1 μg/ml leupeptin, and 0.1 mM PMSF) and homogenized by sonication a Marsonix microprobe sonicator (5 sec, 10 W). To measure PKC, 10 μl of cell homogenate or purified PKC isozyme (purchased from Calbiochem) was incubated for 15 min at 37° C. in the presence of 10 μM histones, 4.89 mM CaCl2, 1.2 μg/μl phosphatidyl-L-serine, 0.18 μg/μl 1,2-dioctanoyl-sn-glycerol, 10 mM MgCl2, 20 mM HEPES (pH 7.4), 0.8 mM EDTA, 4 mM EGTA, 4% glycerol, 8 μg/ml aprotinin, 8 μg/ml leupeptin, and 2 mM benzamidine. […][^γ32P]ATP was added and ^32P-phosphoprotein formation was measured by adsorption onto phosphocellulose as described previously. Nelson and Alkon, J. Neurochemistry (1995), vol. 65, pp. 2350-2357. For measurements of activation by BR-101 (DCP-LA) and similar compounds. PKC activity was measured in the absence of diacylglycerol and phosphatidylserine and PKC δ, ε, η, and μ were measured in the absence of added EGTA and CaCl2, as described by Kanno et al. (J. Lipid Res. 2006, vol. 47, pp. 1146-1150). […]
(§3) To determine their PKC isozyme specificity, fatty acid derivatives were preincubated with purified PKC for five minutes and the PKC activity was measured radiometrically.

[3] = target: T2, PKCδ (Homo sapiens, UniProt Q05655); assay: PKC isozyme specificity, PKCδ; assay type: biochemical; conditions: about 1-100 μM; data not shown
T2 construct: purchased Calbiochem
Description: as §2, §3

[4] = tested on: other PKC isoforms; assay: PKC isozyme specificity, other PKC isoforms; assay type: biochemical; conditions: data not shown
Description: as §2, §3

[5] = tested on: global cerebral ischemia/hypoxia in rats; assay: Global ischemia model, water maze (Examples 10-11); assay type: in vivo, rat
Description: Rats (male, Wistar, 200-225 g) were randomly divided into 6 groups (8 each) and housed for 1 week before experimentation. […] The global ischemia model used to induce vascular memory impairment was two-vessel occlusion combined with a short term systemic hypoxia. Ligation of the bilateral common carotid arteries was performed under anesthesia (pentobarbital, 60 mg/kg, i.p.). After a one-week recovery from the surgery, rats were exposed to 14-min hypoxia (5% oxygen in a glass jar). Control rats (sham operated and vehicle controls) were subjected to the same incision to isolate both common carotid arteries and to 14-min air (in the glass jar). Body temperature was kept at 37-37.5° C. using a heating light source during the surgical procedure and until the animals were fully recovered.

[6] = tested on: global cerebral ischemia/hypoxia in rats; assay: Global cerebral ischemia/hypoxia, spatial learning and memory (Example 12); assay type: in vivo, rat
Description: Global cerebral ischemialhypoxia was induced in male Wistar rats (225-250 g) by permanently occluding the bilateral common carotid arteries, combined with about 14 minutes of low oxygen (about 5%). […] Spatial learning (2 trials/day for 4 days) and memory (a probe test of 1 minute, 24 hours after the last trial) task was performed 9 days after the last dose. Overall, there was a significant difference between the groups (F3,255=31.856, p<0.001) and groups x trials (F21,255=1.648, p<0.05). Global cerebral ischemia impaired the spatial learning (ischemial vs. sham-operated F1,127=[…]).

[7] = tested on: PKC in H19-7/IGF-IR cells; assay: PKC activity over time in rat H19-7/IGF-IR hippocampal cells; assay type: cell-based
Description: as §1
Protein kinase C assay. Rat hippocampal cells were cultured and scraped in 0.2 ml homogenization buffer (20 mM Tris-HCl, pH 7.4, 50 mM NaF, 1 μg/ml leupeptin, and 0.1 mM PMSF) and homogenized by sonication a Marsonix microprobe sonicator (5 sec, 10 W). To measure PKC, 10 μl of cell homogenate or purified PKC isozyme (purchased from Calbiochem) was incubated for 15 min at 37° C. in the presence of 10 μM histones, 4.89 mM CaCl2, 1.2 μg/μl phosphatidyl-L-serine, 0.18 μg/μl 1,2-dioctanoyl-sn-glycerol, 10 mM MgCl2, 20 mM HEPES (pH 7.4), 0.8 mM EDTA, 4 mM EGTA, 4% glycerol, 8 μg/ml aprotinin, 8 μg/ml leupeptin, and 2 mM benzamidine. […][^γ32P]ATP was added and ^32P-phosphoprotein formation was measured by adsorption onto phosphocellulose as described previously. Nelson and Alkon, J. Neurochemistry (1995), vol. 65, pp. 2350-2357. For measurements of activation by BR-101 (DCP-LA) and similar compounds. PKC activity was measured in the absence of diacylglycerol and phosphatidylserine and PKC δ, ε, η, and μ were measured in the absence of added EGTA and CaCl2, as described by Kanno et al. (J. Lipid Res. 2006, vol. 47, pp. 1146-1150). Low concentrations of Ca^2+ are used because high Ca^2+ interacts with the PKC phosphatidylserine binding site and prevents activation. For measurements of bryostatin activation, 1,2-diacylglycerol was omitted unless otherwise stated.
PKC activators that bind to the diacylglycerol binding site, including bryostatin, gnidimacrin, and phorbol esters, produce a transient activation of PKC activity, followed by a prolonged downregulation. Nelson et al., Trends in Biochem. Sci. (2009), vol. 34, pp. 136-145. This was confirmed in cultured rat hippocampal cells. Incubation of rat H19-7/IGF-IR cells with (0.04 nM and 0.2 nM) bryostatin produced a 2-fold activation that lasted 30 min, followed by a 20% downregulation that returned to baseline by 24 hours (data not shown). […] This sustained activation was only observed in primary neurons.

[8] = tested on: α-secretase; conditions: 10 pM; human fibroblasts; cited from earlier work

T2 sequence (Q05655 whole entry): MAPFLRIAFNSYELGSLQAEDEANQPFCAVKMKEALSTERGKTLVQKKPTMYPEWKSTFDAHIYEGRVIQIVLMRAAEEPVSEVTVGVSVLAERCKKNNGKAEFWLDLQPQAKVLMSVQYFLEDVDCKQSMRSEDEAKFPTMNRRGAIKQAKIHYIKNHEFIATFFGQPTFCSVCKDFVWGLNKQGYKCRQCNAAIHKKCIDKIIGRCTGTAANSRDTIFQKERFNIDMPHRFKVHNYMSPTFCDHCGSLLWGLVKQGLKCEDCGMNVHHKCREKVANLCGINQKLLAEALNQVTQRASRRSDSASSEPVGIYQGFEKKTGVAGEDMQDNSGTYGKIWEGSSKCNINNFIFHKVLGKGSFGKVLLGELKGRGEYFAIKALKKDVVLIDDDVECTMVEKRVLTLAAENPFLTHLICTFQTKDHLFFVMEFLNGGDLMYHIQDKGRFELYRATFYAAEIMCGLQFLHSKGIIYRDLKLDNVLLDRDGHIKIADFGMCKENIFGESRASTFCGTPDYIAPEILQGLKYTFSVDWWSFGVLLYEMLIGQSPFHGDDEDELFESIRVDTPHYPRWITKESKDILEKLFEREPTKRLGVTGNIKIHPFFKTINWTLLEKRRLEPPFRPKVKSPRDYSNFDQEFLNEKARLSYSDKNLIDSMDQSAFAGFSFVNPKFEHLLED

Compound | time PKC remained elevated [1] | effect on PKCγ [2] | effect on PKCδ [3] | effects on the other PKC isoforms [4] | water maze spatial learning, ischemic treated vs ischemic rats ([5]; bryostatin-1 20 μg/m^2 i.v. 2 doses/week, 10 doses, MCDA 1.0 mg/kg i.p. daily 5 weeks, start 24 hours after hypoxia) | water maze spatial learning, drug-only vs control rats ([5]; non-ischemic rats, same regimens) | water maze spatial learning, ischemic treated vs control rats ([5]; same regimens) | memory retention (target quadrant preference) after ischemia ([6]; 15 μg/m^2, ischemic rats) | spatial learning, Bryostatin-1 alone vs sham-operated ([6]; 15 μg/m^2, non-ischemic rats) | target quadrant preference, Bryostatin-1 alone vs sham-operated ([6]; 15 μg/m^2, non-ischemic rats) | spatial learning impairment after ischemia ([6]; 15 μg/m^2 tail vein, 2 doses/week, 10 doses, start about 24 hours after event, tested 9 days after last dose) | PKC downregulation following activation ([7]; 0.04 nM and 0.2 nM) | duration of PKC activation ([7]; 0.04 nM and 0.2 nM) | time of return of PKC to baseline ([7]; 0.04 nM and 0.2 nM) | PKC activation ([7]; 0.04 nM and 0.2 nM, H19-7/IGF-IR cells) | PKC activity at 8 hours (downregulation) ([7]; treated cells, 8 hours, data not shown) | increase of initial rate of α-secretase activity [8]
CCCCCC1CC1CC1CC1CCCCCCCC(=O)O (centres unmarked) [BR-101, 2-[(2-pentylcyclopropyl)methyl]cyclopropaneoctanoic acid] | at least four | activated | partially inhibited | relatively small effects | – | – | – | – | – | – | – | – | – | – | – | – | –
CCC/C=C/C=C/C(=O)O[C@H]1/C(=C/C(=O)OC)C[C@H]2C[C@H]([C@@H](C)O)OC(=O)C[C@H](O)C[C@@H]3C[C@H](OC(C)=O)C(C)(C)[C@](O)(C[C@@H]4C/C(=C/C(=O)OC)C[C@H](/C=C/C(C)(C)[C@]1(O)O2)O4)O3 [Bryostatin-1, bryostatin-1] | – | – | – | – | greatly improved the performance | no differences | did not differ statistically | effectively restored memory retention | did not affect the learning | no significant effects | restored | 20% | 30 min | ≤ 24 h | 2 fold | at or near the baseline | 16 fold
